According to US8871753B2, “Macrocyclic compounds and their use as kinase inhibitors” (Incyte Corporation, priority 2008, dated 2014):
Where a name gives a salt, the structure may show the parent alone. Read-outs that look alike come from different tables or passages of the source.

How the values were obtained:
Format in all cases: biochemical
[1] = target: T1, human JAK1 (a.a. 837-1142) (Homo sapiens, UniProt P23458); test: In vitro JAK kinase assay (HTRF, phosphorylation of a biotinylated peptide), JAK1; conditions: read-out: JAK1 IC50
T1 construct: human JAK1 (a.a. 837-1142); His tag (N); made in house; host or cells: insect cells (baculovirus)
T1 sequence (P23458 849-1154): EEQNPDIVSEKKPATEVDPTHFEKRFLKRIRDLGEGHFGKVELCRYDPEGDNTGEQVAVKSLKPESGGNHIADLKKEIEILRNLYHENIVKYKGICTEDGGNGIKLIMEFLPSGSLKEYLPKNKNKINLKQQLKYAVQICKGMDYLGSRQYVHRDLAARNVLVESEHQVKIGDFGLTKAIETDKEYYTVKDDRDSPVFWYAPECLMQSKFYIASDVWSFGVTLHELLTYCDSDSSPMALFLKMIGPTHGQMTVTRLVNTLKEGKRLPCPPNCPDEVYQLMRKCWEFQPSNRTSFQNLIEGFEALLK
How it was run: (§1)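 Kinase activity was measured as phosphorylation of a biotinylated peptide, with ATP at 90 μM for JAK1, 30 μM for JAK2 and 3 μM for JAK3. Reactions ran 1 hr at room temperature, were stopped with EDTA plus SA-APC and Eu-Py20, and were read by HTRF after 40 minutes of antibody binding.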

[2] = target: T2, human JAK2 (a.a. 828-1132) (Homo sapiens, UniProt O60674); test: In vitro JAK kinase assay (HTRF, phosphorylation of a biotinylated peptide), JAK2
T2 construct: JAK2 (a.a. 828-1132); His tag (N); made in house; host or cells: insect cells (baculovirus)
T2 sequence (O60674 828-1132): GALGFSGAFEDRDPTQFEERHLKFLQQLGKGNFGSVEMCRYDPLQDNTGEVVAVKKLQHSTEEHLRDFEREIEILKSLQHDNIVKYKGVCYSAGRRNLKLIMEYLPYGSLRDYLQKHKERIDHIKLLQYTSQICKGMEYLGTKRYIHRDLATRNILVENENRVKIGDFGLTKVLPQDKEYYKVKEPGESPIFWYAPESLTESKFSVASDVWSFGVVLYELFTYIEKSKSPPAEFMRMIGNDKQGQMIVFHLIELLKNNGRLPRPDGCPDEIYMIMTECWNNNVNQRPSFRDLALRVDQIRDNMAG
How it was run: as §1

[3] = target: T3, human JAK3 (a.a. 781-1124) (Homo sapiens, UniProt P52333); test: In vitro JAK kinase assay (HTRF, phosphorylation of a biotinylated peptide), JAK3
T3 construct: JAK3 (a.a. 781-1124); His tag (N); made in house; host or cells: insect cells (baculovirus)
T3 sequence (P52333 781-1124): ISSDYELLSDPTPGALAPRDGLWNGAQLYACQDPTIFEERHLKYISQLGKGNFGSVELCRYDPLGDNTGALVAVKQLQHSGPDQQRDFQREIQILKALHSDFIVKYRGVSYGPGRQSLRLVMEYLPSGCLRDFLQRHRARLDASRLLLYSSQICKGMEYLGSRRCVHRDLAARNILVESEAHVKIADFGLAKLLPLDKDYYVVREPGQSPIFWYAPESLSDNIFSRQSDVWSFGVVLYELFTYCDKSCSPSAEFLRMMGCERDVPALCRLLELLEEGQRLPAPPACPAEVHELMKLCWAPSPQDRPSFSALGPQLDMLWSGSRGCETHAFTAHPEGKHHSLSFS
How it was run: as §1

TYK2 = TYK2 (Homo sapiens, UniProt P29597); test: TYK2 kinase inhibition (Table A1)
Chain of TYK2 (P29597 whole entry): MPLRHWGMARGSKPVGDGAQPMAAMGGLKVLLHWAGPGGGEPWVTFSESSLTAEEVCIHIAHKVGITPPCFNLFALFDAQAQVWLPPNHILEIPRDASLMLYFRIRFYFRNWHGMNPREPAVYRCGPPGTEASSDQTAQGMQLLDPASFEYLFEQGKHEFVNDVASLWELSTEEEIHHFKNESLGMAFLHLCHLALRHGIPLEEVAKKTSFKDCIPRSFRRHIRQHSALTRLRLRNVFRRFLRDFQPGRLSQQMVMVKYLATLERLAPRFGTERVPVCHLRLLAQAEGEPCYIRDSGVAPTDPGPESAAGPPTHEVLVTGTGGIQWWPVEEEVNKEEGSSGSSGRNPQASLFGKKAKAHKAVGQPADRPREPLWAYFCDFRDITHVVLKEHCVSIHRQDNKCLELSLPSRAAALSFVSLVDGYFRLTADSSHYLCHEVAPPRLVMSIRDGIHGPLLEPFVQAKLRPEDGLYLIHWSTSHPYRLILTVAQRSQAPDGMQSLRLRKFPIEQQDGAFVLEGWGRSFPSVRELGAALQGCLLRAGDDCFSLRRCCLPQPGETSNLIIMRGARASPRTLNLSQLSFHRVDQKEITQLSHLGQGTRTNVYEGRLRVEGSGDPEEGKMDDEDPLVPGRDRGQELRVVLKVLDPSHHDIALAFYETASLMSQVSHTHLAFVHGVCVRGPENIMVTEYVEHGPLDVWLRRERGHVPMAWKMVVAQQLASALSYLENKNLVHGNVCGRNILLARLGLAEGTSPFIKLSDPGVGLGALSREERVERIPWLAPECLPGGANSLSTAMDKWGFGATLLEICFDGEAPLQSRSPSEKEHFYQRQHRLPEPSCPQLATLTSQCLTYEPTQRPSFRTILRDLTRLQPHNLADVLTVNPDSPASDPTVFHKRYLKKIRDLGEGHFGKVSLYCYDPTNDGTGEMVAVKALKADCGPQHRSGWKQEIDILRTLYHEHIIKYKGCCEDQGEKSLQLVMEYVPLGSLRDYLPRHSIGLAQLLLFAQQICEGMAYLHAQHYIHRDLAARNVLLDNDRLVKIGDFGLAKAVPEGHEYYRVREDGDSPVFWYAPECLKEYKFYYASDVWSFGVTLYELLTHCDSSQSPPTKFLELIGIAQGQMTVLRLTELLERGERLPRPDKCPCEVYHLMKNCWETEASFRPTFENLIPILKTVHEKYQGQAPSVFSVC

[4] = target: T4, Recombinant Human Anaplastic Lymphoma Kinase (Homo sapiens, UniProt Q9UM73); test: ALK HTRF kinase assay
T4 construct: purchased Invitrogen, Carlsbad, Calif
T4 sequence (Q9UM73 19-1620): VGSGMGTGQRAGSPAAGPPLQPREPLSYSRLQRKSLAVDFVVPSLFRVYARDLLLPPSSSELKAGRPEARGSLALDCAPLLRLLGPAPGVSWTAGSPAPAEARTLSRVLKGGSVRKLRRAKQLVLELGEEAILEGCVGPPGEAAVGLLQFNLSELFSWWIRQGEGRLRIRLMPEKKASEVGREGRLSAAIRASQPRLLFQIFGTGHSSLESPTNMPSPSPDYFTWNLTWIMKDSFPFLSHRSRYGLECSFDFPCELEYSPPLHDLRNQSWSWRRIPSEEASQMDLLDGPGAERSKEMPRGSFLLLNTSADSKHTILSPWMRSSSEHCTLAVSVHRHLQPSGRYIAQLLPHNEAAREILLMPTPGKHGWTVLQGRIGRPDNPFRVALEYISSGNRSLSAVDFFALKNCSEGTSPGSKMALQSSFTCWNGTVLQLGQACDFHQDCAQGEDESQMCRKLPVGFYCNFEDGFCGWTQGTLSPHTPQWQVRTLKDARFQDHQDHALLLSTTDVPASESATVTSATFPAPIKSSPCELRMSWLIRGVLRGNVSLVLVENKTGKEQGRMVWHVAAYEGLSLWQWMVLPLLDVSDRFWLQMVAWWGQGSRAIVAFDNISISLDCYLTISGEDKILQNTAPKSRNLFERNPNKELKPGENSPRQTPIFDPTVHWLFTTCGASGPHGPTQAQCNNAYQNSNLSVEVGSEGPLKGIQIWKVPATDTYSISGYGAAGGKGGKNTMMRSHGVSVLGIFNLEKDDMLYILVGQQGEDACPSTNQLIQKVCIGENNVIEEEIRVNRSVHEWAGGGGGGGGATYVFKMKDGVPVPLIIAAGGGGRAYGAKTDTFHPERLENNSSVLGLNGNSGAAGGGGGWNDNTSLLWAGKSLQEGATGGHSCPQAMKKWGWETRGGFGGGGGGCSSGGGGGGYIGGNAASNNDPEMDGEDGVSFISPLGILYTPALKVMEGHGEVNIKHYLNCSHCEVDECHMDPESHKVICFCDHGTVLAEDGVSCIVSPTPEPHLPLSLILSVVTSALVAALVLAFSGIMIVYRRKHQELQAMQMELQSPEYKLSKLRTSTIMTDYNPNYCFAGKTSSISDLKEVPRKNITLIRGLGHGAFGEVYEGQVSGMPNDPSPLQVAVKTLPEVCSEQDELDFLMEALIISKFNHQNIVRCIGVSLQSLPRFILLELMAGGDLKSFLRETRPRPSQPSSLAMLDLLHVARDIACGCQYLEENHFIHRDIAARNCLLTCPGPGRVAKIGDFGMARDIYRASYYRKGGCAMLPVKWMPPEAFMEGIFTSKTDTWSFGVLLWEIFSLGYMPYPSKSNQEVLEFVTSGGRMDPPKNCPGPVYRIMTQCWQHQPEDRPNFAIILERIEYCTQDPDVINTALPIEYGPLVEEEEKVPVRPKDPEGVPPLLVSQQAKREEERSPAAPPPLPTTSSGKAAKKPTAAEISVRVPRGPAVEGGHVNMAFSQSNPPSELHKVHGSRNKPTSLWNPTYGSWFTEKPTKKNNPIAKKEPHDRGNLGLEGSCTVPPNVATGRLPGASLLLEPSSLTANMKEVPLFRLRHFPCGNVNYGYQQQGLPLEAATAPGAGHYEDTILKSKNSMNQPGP
How it was run: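 Recombinant human ALK phosphorylated a biotinylated synthetic peptide. Phosphotyrosine was detected by TR-FRET between a Eu-labelled anti-phosphotyrosine antibody and streptavidin-allophycocyanin. IC50 values came from fitting signal against inhibitor concentration to a four-parameter logistic equation with variable Hill slope.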

[5] = compound at a concentration of 500 nM or 1 mM (not specified), cells shown as percentage
[6] = method AA1 (90 μM ATP) or AA2 (1000 μM ATP), not stated per value
[7] = method AA1 (30 μM ATP) or AA2 (1000 μM ATP), not stated per value
[8] = method AA1 (3 μM ATP) or AA2 (1000 μM ATP), not stated per value
[9] = compound at 500 nM or 1 mM, 90 μM ATP
[10] = Table B1, cells without percent sign
[11] = percentage inhibition of the example compound at a concentration of 500 nM or 1 mM (not specified which)

| SMILES | IC50 ([1]; Table B1) [nM] | IC50 ([2]; Table B1) [nM] | IC50 ([3]; Table B1) [nM] | IC50 (TYK2; Table B1) [nM] | IC50 [1, 6] [nM] | IC50 [2, 7] [nM] | IC50 [3, 8] [nM] | IC50 (TYK2) [nM] | ALK % of inhibition at a concentration of 500 nM or 1 mM [4, 9] [%] | further results |
| --- | --- | --- | --- | --- | --- | --- | --- | --- | --- | --- |
| CN1CC[C@H](NC(=O)Nc2ccc3cc2CCc2cccc(c2)Nc2ncc(Cl)c(n2)N3)C1 [Example B261, N-[6-Chloro-2,4,8,22-tetraazatetracyclo[14.3.1.1(3,7).1(9,13)]docosa-1(20),3(22),4,6,9(21),10,12,16,18-nonaen-12-yl]-N′-[(3S)-1-methylpyrrolidin-3-yl]urea bis(trifluoroacetate)] | 9.5 | 29 | 81 | 81 |  |  |  |  |  | ALK % of inhibition at a concentration of 500 nM or 1 mM [4, 5]: 24% |
| Clc1cnc2nc1Nc1cccc(c1)OCCc1cc(cc(-c3ccncc3)c1)N2 [Example D25, 6-Chloro-19-pyridin-4-yl-14-oxa-2,4,8,23-tetraazatetracyclo[15.3.1.1(3,7).1(9,13)]tricosa-1(21),3(23),4,6,9(22),10,12,17,19-nonaene bis(trifluoroacetate)] |  |  |  |  |  |  |  |  |  | IC50 ([1]; Table D1): 1.1 nM; IC50 ([2]; Table D1): 0.3 nM; IC50 ([3]; Table D1): 8.8 nM; IC50 (TYK2; Table D1): 2.1 nM; IC50 ([4]; Table D1, 90 μM ATP): 110 nM |
| O=C(CC1CCN(S(=O)(=O)c2ccccc2F)CC1)Nc1ccc2cc1CCc1cncc(c1)Nc1ncc(Cl)c(n1)N2 [Example A226, N-[6-Chloro-2,4,8,18,22-pentaazatetracyclo[14.3.1.1(3,7).1(9,13)]docosa-1(20),3(22),4,6,9(21),10,12,16,18-nonaen-12-yl]-2-{1-[(2-fluorophenyl)sulfonyl]piperidin-4-yl}acetamide bis(trifluoroacetate)] |  |  |  |  | 5.3 | 100 | > 400 | > 400 | 55 |  |
| Cc1nc(S(=O)(=O)Nc2cc3cc(c2)OCCSc2cccc(c2)Nc2nc(ncc2Cl)N3)cn1C [Example D69, N-[6-Chloro-17-oxa-14-thia-2,4,8,24-tetraazatetracyclo[16.3.1.1(3,7).1(9,13)]tetracosa-1(22),3(24),4,6,9(23),10,12,18,20-nonaen-20-yl]-1,2-dimethyl-1H-imidazole-4-sulfonamide bis(trifluoroacetate)] |  |  |  |  |  |  |  |  |  | IC50 ([1]; Table D1): 3.5 nM; IC50 ([2]; Table D1): 1.4 nM; IC50 ([3]; Table D1): 8.6 nM; IC50 (TYK2; Table D1): 8.4 nM; IC50 ([4]; Table D1, 90 μM ATP): 160 nM |
| O=C(Cc1ccccc1)Nc1cc2cc(c1)OCCSc1cccc(c1)Nc1nc(ncc1Cl)N2 [Example D64, trifluoroacetate] |  |  |  |  |  |  |  |  |  | IC50 ([1]; Table D1): 3.8 nM; IC50 ([2]; Table D1): 0.2 nM; IC50 ([3]; Table D1): 8.4 nM; IC50 (TYK2; Table D1): 3.7 nM; IC50 ([4]; Table D1, 90 μM ATP): 450 nM |
| O=C(CC1CCN(C(=O)c2ccc(F)cc2F)CC1)Nc1ccc2cc1CCc1cncc(c1)Nc1ncc(Cl)c(n1)N2 [Example A194, N-[6-Chloro-2,4,8,18,22-pentaazatetracyclo[14.3.1.1(3,7).1(9,13)]docosa-1(20),3(22),4,6,9(21),10,12,16,18-nonaen-12-yl]-2-[1-(2,4-difluorobenzoyl)piperidin-4-yl]acetamide bis(trifluoroacetate)] |  |  |  |  | 7.3 | 150 | > 200 | > 200 | 31 |  |
| O=C(Nc1ccc(N2CCOCC2)cc1)c1cc2cc(c1)Nc1nc(ncc1Cl)Nc1cccc(c1)CC2 [Example B9, 6-Chloro-N-(4-morpholin-4-ylphenyl)-2,4,8,22-tetraazatetracyclo[14.3.1.1(3,7).1(9,13)]docosa-1(20),3(22),4,6,9(21),10,12,16,18-nonaene-11-carboxamide trifluoroacetate] | 263 | 130 | > 1000 | 683 |  |  |  |  |  | IC50 [4, 10]: > 1000 nM |
| CC(C)(C)c1ccccc1NC(=O)Nc1ccc2cc1CCc1cccc(c1)Nc1ncc(Cl)c(n1)N2 [Example B110, N-(2-tert-Butylphenyl)-N′-[6-chloro-2,4,8,22-tetraazatetracyclo[14.3.1.1(3,7).1(9,13)]docosa-1(20),3(22),4,6,9(21),10,12,16,18-nonaen-12-yl]urea trifluoroacetate] | 4.3 | 5.2 | 92 | 15 |  |  |  |  |  | ALK % of inhibition at a concentration of 500 nM or 1 mM [4, 5]: 7.1% |
| N#Cc1ccc(NC(=O)N2CCC(CC(=O)Nc3ccc4cc3CCc3cncc(c3)Nc3ncc(Cl)c(n3)N4)CC2)cc1 [Example A143, 4-(2-{[6-Chloro-2,4,8,18,22-pentaazatetracyclo[14.3.1.1(3,7).1(9,13)]docosa-1(20),3(22),4,6,9(21),10,12,16,18-nonaen-12-yl]amino}-2-oxoethyl)-N-(4-cyanophenyl)piperidine-1-carboxamide bis(trifluoroacetate)] |  |  |  |  | 2.2 | 1.8 | > 100 | 1.2 | 63 |  |
| O=C(CC1CCN(c2nc3ccccc3s2)CC1)Nc1ccc2cc1CCc1cncc(c1)Nc1ncc(Cl)c(n1)N2 [Example A157, 2-[1-(1,3-Benzothiazol-2-yl)piperidin-4-yl]-N-[6-chloro-2,4,8,18,22-pentaazatetracyclo[14.3.1.1(3,7).1(9,13)]docosa-1(20),3(22),4,6,9(21),10,12,16,18-nonaen-12-yl]acetamide tris(trifluoroacetate)] |  |  |  |  | 2.6 | 102 | > 10000 | 617 | 15 |  |
| O=C(Nc1ccc2cc1CCc1cccc(c1)Nc1ncc(Cl)c(n1)N2)C1CC1 [Example B27, N-[6-Chloro-2,4,8,22-tetraazatetracyclo[14.3.1.1(3,7).1(9,13)]docosa-1(20), 3(22),4,6,9(21),10,12,16,18-nonaen-12-yl]cyclopropanecarboxamide trifluoroacetate] | 5.2 | 3.7 | 8.5 | 15 |  |  |  |  |  | IC50 [4, 10]: 880 nM |
| O=C(CC1CCN(c2ncc(F)cn2)CC1)Nc1ccc2cc1CCc1cncc(c1)Nc1ncc(Cl)c(n1)N2 [Example A169, N-[6-Chloro-2,4,8,18,22-pentaazatetracyclo[14.3.1.1(3,7).1(9,13)]docosa-1(20),3(22),4,6,9(21),10,12,16,18-nonaen-12-yl]-2-[1-(5-fluoropyrimidin-2-yl)piperidin-4-yl]acetamide tris(trifluoroacetate)] |  |  |  |  | 26 | 131 | > 1000 | 319 | 23 |  |
| Cn1ccc(C(=O)Nc2ccc3cc2CCc2cccc(c2)Nc2ncc(Cl)c(n2)N3)n1 [Example B31, N-[6-Chloro-2,4,8,22-tetraazatetracyclo[14.3.1.1(3,7).1(9,13)]docosa-1(20), 3(22),4,6,9(21),10,12,16,18-nonaen-12-yl]-1-methyl-1H-pyrazole-3-carboxamide trifluoroacetate] | 5.4 | 3.7 | 69 | 10 |  |  |  |  |  | IC50 [4, 10]: > 10000 nM |

Now from value to compound, other results behind:

| IC50 ([1]; Table B1) [nM] | IC50 ([2]; Table B1) [nM] | IC50 ([3]; Table B1) [nM] | IC50 (TYK2; Table B1) [nM] | IC50 [1, 6] [nM] | IC50 [2, 7] [nM] | IC50 [3, 8] [nM] | IC50 (TYK2) [nM] | ALK % of inhibition at a concentration of 500 nM or 1 mM [4, 9] [%] | SMILES | further results |
| --- | --- | --- | --- | --- | --- | --- | --- | --- | --- | --- |
| 27 | 265 | > 400 | 43 |  |  |  |  |  | O=C(Nc1ccc2cc1CCc1cncc(c1)Nc1ncc(Cl)c(n1)N2)N1CCN(c2cccc(Cl)c2)CC1 [Example B306, N-[6-Chloro-2,4,8,18,22-pentaazatetracyclo[14.3.1.1(3,7).1(9,13)]docosa-1(20),3(22),4,6,9(21),10,12,16,18-nonaen-12-yl]-4-(3-chlorophenyl)piperazine-1-carboxamide tris(trifluoroacetate)] | ALK % of inhibition at a concentration of 500 nM or 1 mM [4, 11]: 72% |
| 14 | 141 | 85 | 15 |  |  |  |  |  | Cc1cc(C(=O)N2CC[C@H](NC(=O)Nc3ccc4cc3CCc3cncc(c3)Nc3ncc(Cl)c(n3)N4)C2)no1 [Example B265, N-[6-Chloro-2,4,8,18,22-pentaazatetracyclo[14.3.1.1(3,7).1(9,13)]docosa-1(20),3(22),4,6,9(21),10,12,16,18-nonaen-12-yl]-N′-{(3S)-1-[(5-methylisoxazol-3-yl)carbonyl]pyrrolidin-3-yl}urea bis(trifluoroacetate)] | ALK % of inhibition at a concentration of 500 nM or 1 mM [4, 5]: 23% |
| 11 | 150 | 371 | 300 |  |  |  |  |  | Cc1occc1NC(=O)N1CCC(CN(C)Cc2ccc3cc2CCc2cncc(c2)Nc2ncc(Cl)c(n2)N3)CC1 [Example B349, 4-{[{[6-Chloro-2,4,8,18,22-pentaazatetracyclo[14.3.1.1(3,7).1(9,13)]docosa-1(20),3(22),4,6,9(21),10,12,16,18-nonaen-12-yl]methyl}(methyl)amino]methyl}-N-(2-methyl-3-furyl)piperidine-1-carboxamide tris(trifluoroacetate)] | ALK % of inhibition at a concentration of 500 nM or 1 mM [4, 11]: 61% |
